Like-named read-outs stand apart in the source and are kept apart here.
Assays:
Herpes B = settings: cited from earlier work
[1] = in vivo; cited from earlier work
[2] = in vivo; cited from earlier work; remark: listed apart in the source
[3] = in vivo; cited from earlier work; remark: listed apart in the source
[4] = sheep; cited from earlier work
[5] = sheep; doses as high as 50 mg/kg; cited from earlier work
[6] = in vivo; cited from earlier work; remark: listed apart in the source
[7] = cited from earlier work
hepatitis C, genotype 4 = assay: Open label clinical trial of oral methylene blue, reduction in hepatitis C viral load measured by PCR
chronic hepatitis B or C = settings: patients with chronic hepatitis B or C; cited from earlier work
[8] = at 50 days, of the 23 responders

## Nc1nc2c(ncn2COCCO)c(=O)[nH]1 [Acyclovir]
Herpes B
  sensitivity of the virus in vitro: sensitive

## Nc1nc(O)c2ncn(COC(CO)CO)c2n1 [Ganciclovir]
Herpes B
  sensitivity of the virus in vitro: sensitive

## CC(C)[C@H](N)C(=O)OCCOCn1cnc2c(=O)[nH]c(N)nc21 [Valaciclovir]
[1]
  oral bioavailability superior to that of oral acyclovir: 3-5 times

## CC(=O)OCC(CCn1cnc2cnc(N)nc21)COC(C)=O [famciclovir]
[1]
  oral bioavailability superior to that of oral acyclovir: 3-5 times

## CN(C)c1ccc2nc3ccc(N(C)C)cc3[s+]c2c1 [methylene blue, 3,7-Bis(dimethylamino)-phenothiazin-5-ium chloride]
[2]
  oral absorption (range): 55% to 97
[3]
  absorption from the GI tract: absorbed well
[4]
  overall elimination rate constant: 0.0076 ± 0.0016 min⁻¹
[5]
  methemoglobin production: minimal methemoglobin production
[6]
  crossing of the blood-milk barrier: crosses the blood-milk barrier easily
[7]; adult humans, one week to 19 months, 100 mg b.i.d. or t.i.d. orally or 100 mg intravenously
  side effects: minimal side effects
[7]; recommended dose 50 to 300 mg by mouth, 1 to 4 mg/kg intravenously
  side effects: blue urine, occasional nausea, anemia and fever
Hepatitis C, genotype 4; 23 patients (of 25, genotype 4), at 50 days
  decrease in viral count: 70-100%
Hepatitis C, genotype 4; at 50 days, 25 patients, genotype 4
  non-responders: Two
Hepatitis C, genotype 4; [8]
  responders with between 0.7-1 log reduction in viral load: 12 (52%) patients (%)
  responders with between 1-2 log reduction in viral load: 6 (26%) patients (%)
  responders with viral clearance: 5 (22%) patients (%)
Hepatitis C, genotype 4; interim results, 8 of 9 patients, within the first 50 days
  drop in viral load: 62%-100
Hepatitis C, genotype 4; interim results, first 9 patients, 50 days of treatment
  patients with between greater than or equal to 0.6 log to less than or equal to 1 log reduction in viral load: 89%
Hepatitis C, genotype 4; interim results, first 9 patients, 50 days of treatment, 65 mg twice daily oral
  patients with a greater than or equal to two log reduction in viral load: 33%
Hepatitis C, genotype 4; overall conclusion of the trial results
  efficacy in treating hepatitis C (conclusion): highly efficacious

## Interferon alpha
Chronic hepatitis B or C
  patients in whom treatment is effective: 25-30%

Reference: patent US20060264423A1 (BIOENVISION, INC., priority 2005, published 2006)
